According to patent EP0351921A2, “Modified beta adrenergic receptor” (MERCK & CO. INC., priority 1988, dated 1990):

Key:
[Glu¹¹³]βAR = [Glu¹¹³]βAR (Mesocricetus auratus, UniProt P04274, D113E); test: Adenylyl cyclase stimulation in membranes of cell lines expressing the receptor; conditions: for %NaF: (Glu^113)βAR, percentage of maximal stimulation by 10 mM NaF, Table 3
[1] = target: wild-type βAR ([Asp113]βAR) (Mesocricetus auratus, UniProt P04274); test: as above; conditions: for %NaF: (Asp^113)βAR, percentage of maximal stimulation by 10 mM NaF, Table 3; for maximal adenylyl cyclase stimulation (% of NaF): [Asp113]βAR, maximally effective concentration of the compound, relative to 10 mM NaF, Table 1
Sequence of wild-type βAR ([Asp113]βAR) (P04274 whole entry): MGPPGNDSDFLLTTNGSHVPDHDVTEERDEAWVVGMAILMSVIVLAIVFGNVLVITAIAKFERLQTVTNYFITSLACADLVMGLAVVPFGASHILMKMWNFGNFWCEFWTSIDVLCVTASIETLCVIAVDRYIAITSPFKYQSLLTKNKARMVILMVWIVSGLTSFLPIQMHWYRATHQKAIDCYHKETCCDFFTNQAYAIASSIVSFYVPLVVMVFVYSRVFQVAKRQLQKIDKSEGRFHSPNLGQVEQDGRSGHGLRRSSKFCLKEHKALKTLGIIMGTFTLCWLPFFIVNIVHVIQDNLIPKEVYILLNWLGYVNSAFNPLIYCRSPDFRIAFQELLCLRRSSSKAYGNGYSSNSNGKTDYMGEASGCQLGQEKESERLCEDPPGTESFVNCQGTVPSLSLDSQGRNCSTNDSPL

[Arg¹¹³]βAR = [Arg¹¹³]βAR (Mesocricetus auratus, UniProt P04274, D113R); conditions: ligand concentrations as high as 1 mM
Sequence of [Arg¹¹³]βAR (P04274 whole entry D113R): as the sequence (P04274 whole entry) above, with D113R counted along it

[His¹¹³]βAR = [His¹¹³]βAR (Mesocricetus auratus, UniProt P04274, D113H); conditions: ligand concentrations as high as 1 mM
Sequence of [His¹¹³]βAR (P04274 whole entry D113H): as the sequence (P04274 whole entry) above, with D113H counted along it

[Asn113]βAR = target: T1, [Asn113]βAR (Mesocricetus auratus, UniProt P04274, D113N); test: Adenylyl cyclase stimulation in membranes of cell lines expressing the receptor; type: biochemical, hamster; conditions: for maximal adenylyl cyclase stimulation (% of NaF): [Asn113]βAR, maximally effective concentration of the compound, relative to 10 mM NaF, Table 1
T1 construct: pSVBAC contains the full length hamster β₂AR cDNA cloned into the EcoRI site of pSVL; expressed in transfected cells; host or cells: mouse L cells (clonal lines; membranes)
T1 sequence (P04274 whole entry D113N): as the sequence (P04274 whole entry) above, with D113N counted along it

[LYS¹¹³]βAR = [LYS¹¹³]βAR (Mesocricetus auratus, UniProt P04274, D113K); conditions: ligand concentrations as high as 1 mM
Sequence of [LYS¹¹³]βAR (P04274 whole entry D113K): as the sequence (P04274 whole entry) above, with D113K counted along it

[Cys¹¹³]βAR = [Cys¹¹³]βAR (Mesocricetus auratus, UniProt P04274, D113C); conditions: ligand concentrations as high as 1 mM
Sequence of [Cys¹¹³]βAR (P04274 whole entry D113C): as the sequence (P04274 whole entry) above, with D113C counted along it

[2] = maximum concentration 10⁻⁴ M (*)
[3] = maximum concentration 10⁻⁵ M (+)

Sequence of [Glu¹¹³]βAR (P04274 whole entry D113E): as the sequence (P04274 whole entry) above, with D113E counted along it

%NaF ([Glu¹¹³]βAR; maximum concentration 10⁻³ M) [%] | %NaF ([1]; maximum concentration 10⁻³ M) [%] | %NaF ([Glu¹¹³]βAR; [2]) | %NaF [1, 3] | SMILES | further results
0 | 0 | – | – | CC(C)NCC(O)COc1ccccc1 (stereo not drawn) [Compound 4, 3-phenoxy-1-isopropylamino-2-propanol] | –
6 | 0 | – | – | Cc1ccc(OCC(O)CNC(C)C)c2c1CCC2 (stereo not drawn) [Compound 3, 3-(7-methylindan-4-yloxy) -1-isopropylamino-2-propanol] | –
– | – | 0^* % | 0^+ % | CC(C)NCC(O)COc1ccc(COCCOC(C)C)cc1 (stereo not drawn) [Compound 8, bisopropol] | –
– | – | 0^* % | 0^+ % | CC(C)NCC(O)COc1ccc(CC(N)=O)cc1 (stereo not drawn) [Compound 6, atenolol] | –
– | – | – | – | CC(C)NCC(O)c1ccc(O)c(O)c1 (stereo not drawn) [isoproterenol] | stimulation of adenylyl cyclase ([Arg¹¹³]βAR): no stimulation; stimulation of adenylyl cyclase ([His¹¹³]βAR): no stimulation; decrease in affinity for the receptor ([Glu¹¹³]βAR; substitution of Glu for Asp¹¹³, versus wild-type receptor): 300 fold; maximal adenylyl cyclase stimulation (% of NaF) ([Asn113]βAR): 100%; decrease in affinity for the receptor ([Asn113]βAR; substitution of Asn for Asp¹¹³, versus wild-type receptor): 5000 fold; stimulation of adenylyl cyclase ([LYS¹¹³]βAR): no stimulation; maximal adenylyl cyclase stimulation (% of NaF) [1]: 100%; stimulation of adenylyl cyclase ([Cys¹¹³]βAR): no stimulation
– | – | 2^* % | 0^+ % | COCCc1ccc(OCC(O)CNC(C)C)cc1 (stereo not drawn) [Compound 7, metoprolol] | –
0 | 0 | – | – | CC(C)NCC(O)COc1ccccc1N1CCOCC1 (stereo not drawn) [Compound 9, 3-o-morpholinophenoxy-1-isopropylamino-2-propanol] | –
– | – | – | – | N=C(N)NCC(O)c1ccc(O)c(O)c1 [L-612,158, 1-[2-(3,4-dihydroxyphenyl)-2-hydroxyethyl]guanidine] | maximal adenylyl cyclase stimulation (% of NaF) ([Asn113]βAR): 50%; maximal adenylyl cyclase stimulation (% of NaF) [1]: 11%; decrease in affinity of the interaction with the wild type βAR ([1]; versus isoproterenol): 1000 fold

SMILES | %NaF ([Glu¹¹³]βAR; maximum concentration 10⁻³ M) [%] | %NaF ([1]; maximum concentration 10⁻³ M) [%] | %NaF ([Glu¹¹³]βAR; [2]) | %NaF [1, 3] | further results
CC(C)NCC(O)COc1ccc(-c2ncc[nH]2)cc1 (stereo not drawn) [Compound 5, 3-(4-(1-imidazol-2-yl)phenoxy)-1-isopropylamino-2-propanol] | 0 | 0 | – | – | –
CC(C)NCC(O)COc1cccc2[nH]ccc12 (stereo not drawn) [Compound 2, pindolol] | 35 | 0 | – | – | –
